Experimental data reported in patent publication US20080145858A1, “DETECTION AND IDENTIFICATION OF TOXICANTS BY MEASUREMENT OF GENE […]” (priority 2003, published 2008).
Marks after values point to notes of the source that are not given here.

System: Xenopus laevis neurulation stage embryos (stage 15)
Assay: Xenopus cDNA microarray, differential gene expression after PMA treatment during neurulation (Group II)
Format: in vivo
Settings: for Ratio of Medians (Cy5/Cy3) Mean / Ratio of Medians (Cy5/Cy3) Second Spot / Cy3/Cy5 by Landmarks (0.25) / Cy3/Cy5 by all Data Points (0.469) / Normalized by Landmarks (0.25) / Normalized by all Data Points (0.469) / Ratio of Medians (Cy5/Cy3) First Spot: PMA, stage 15; for % increase of mRNA expression by Microarray analysis (NF by all data point): Stage 15
Description: Specifically, the method and screen of the present invention function as follows. EST clones produced from Xenopus laevis unfertilized eggs were used in the present study with ˜1,200 EST clones from a 18,500 EST clone set selected for production of a Xenopus cDNA microarray. The Xenopus microarray was used to measure the effect of chemical treatment on Xenopus embryo gene regulation. The chemical treatment was a phorbol ester, PMA. Xenopus eggs were obtained from females induced for ovulation and fertilized in vitro. Control Xenopus laevis embryos were allowed to develop to stage 8 blastula or stage 15 neurula. Treated embryos were exposed to PMA during cleavage stage or during neurulation with end points of blastula (stage 8) or neurula (stage 15). Specifically, PMA 100 ng/ml was added to the incubation media during cleavage stages for evaluation in stage 8 embryo or PMA was added during neural induction for evaluation in stage 15 embryos. RNA extracted from the embryos was used to generate fluorescent cDNA probes for Xenopus microarray analyses to measure differential gene expression with and without the phorbol ester treatment. Analysis was performed using paired RNA samples to compare PMA-treated and untreated embryos: Group I measured the effects of PMA-treatment during the cleavage stage in stage 8 embryos and Group II measured the effects of PMA-treatment during neurulation in stage 15 embryos. Group III measured the change in gene expression between stage 8 and stage 15 embryos.
cDNA fragments were obtained by PCR replication of Xenopus laevis unfertilized egg cDNA inserts, purified, quantitated and loaded onto glass chips by robotics. In addition to the selected ˜1,200 genes, 64 lambda Q gene, an internal control cDNA (Genomic Solutions, Inc., Ann Arbor, Mich.) was loaded on the chip. The insert DNA from ˜1,200 clones were PCR amplified using forward and reverse primers (GF.200 primers, Research Genetics, Huntsville, Ala.). A second PCR was carried out using 1 μl of the primary PCR (20 μl) for template. Excess dNTPs, polymerase and other PCR artifacts were removed from the secondary PCR reactions using Millipore Multiscreen plates (Millipore Corporation, Bedford, Mass.) using the standard protocol. The purity of the PCR products was assessed by electrophoresis and documented using an Alphalmager 1000 Digital Imaging System (Alpha Innotech Corporation, San Leandro, Calif.). The DNA obtained by PCR was quantitated using PicoGreen (Molecular Probes, Eugene, Oreg.). The DNA was denatured and arrayed onto amino-silane coated microscope slides (CMT-GAPS coated slides, Corning, Corning, N.Y.) using a Flexys robotic workstation (Genomic Solutions Inc.). The ˜1,200 PCR products were arrayed in duplicate on each slide and cross-linked. Each gene chip contained duplicate cDNA samples.
Total RNA was prepared from embryos treated in three separate dishes per treatment group that were pooled. Total RNA was isolated from the frog embryos (1,200 embryos for each probe production) using TRIzol extraction (Gibco BRL, Grand Island, N.Y.) and Qiagen RNeasy kits (Qiagen, Valencia, Calif.). The ethanol precipitated RNA was resuspended in RNase-free water, quantitated with RiboGreen (Molecular Probes, Eugene, Oreg.). Total RNA was further purified using oligoTex mRNA maxi kit (Qiagen Co.) with the bound mRNA eluted with minimum volume of elution buffer and precipitated with ethanol. The recovery rate of mRNA by the ethanol precipitation method was ˜70%. Cy3- or Cy5-tagged probes were produced from an mRNA mixture (20 μl) of Xenopus mRNA (5 μg) and lambda Q gene mRNA (3.5 ng) reverse-transcribed with oligo(dT)18-22 primer and dNTPs and the reverse-transcribed cDNA was cross-linked with Cy3 or Cy5 as described in Clontech Atlas™ Glass Fluorescent Labeling kit manual (www.clontech.com). After hydrolysis of the RNA and purification of the probe (Centricon 50, Millipore, Bedford, Mass.), the cDNA in TE buffer was quantitated by absorbance at 260 nm. […]

## CCCCCCCCCCCCCC(=O)O[C@@H]1[C@@H](C)[C@@]2(O)[C@@H](C=C(CO)C[C@]3(O)C(=O)C(C)=C[C@@H]23)[C@@H]2C(C)(C)[C@]12OC(C)=O [PMA, phorbol 12-myristate 12-acetate]
PBX0139G06 mRNA
  Ratio of Medians (Cy5/Cy3) Mean: 1.06 ± 0.00 ^a
  Ratio of Medians (Cy5/Cy3) Second Spot: 1.06
PBX0140A10 mRNA
  Cy3/Cy5 by Landmarks (0.25): 4.20
  Cy3/Cy5 by all Data Points (0.469): 2.24
  Normalized by Landmarks (0.25): 0.238
  Normalized by all Data Points (0.469): 0.446
  Ratio of Medians (Cy5/Cy3) First Spot: 0.89
  Ratio of Medians (Cy5/Cy3) Mean: 0.95 ± 0.06 ^a
  Ratio of Medians (Cy5/Cy3) Second Spot: 1.00
PBX0141B10 mRNA
  Cy3/Cy5 by Landmarks (0.25): 3.92
  Cy3/Cy5 by all Data Points (0.469): 2.09
  Normalized by Landmarks (0.25): 0.255
  Normalized by all Data Points (0.469): 0.478
  Ratio of Medians (Cy5/Cy3) First Spot: 0.92
  Ratio of Medians (Cy5/Cy3) Mean: 1.02 ± 0.10 ^a
  Ratio of Medians (Cy5/Cy3) Second Spot: 1.12
PBX0141H05 mRNA
  Cy3/Cy5 by Landmarks (0.25): 10.8
  Cy3/Cy5 by all Data Points (0.469): 5.76
  Normalized by Landmarks (0.25): 0.093
  Normalized by all Data Points (0.469): 0.174
  Ratio of Medians (Cy5/Cy3) First Spot: 0.73
  Ratio of Medians (Cy5/Cy3) Mean: 0.37 ± 0.36 ^a
  Ratio of Medians (Cy5/Cy3) Second Spot: 0.015
PBX 0141H12 mRNA
  Normalized by Landmarks (0.25): 1.40
  Normalized by all Data Points (0.469): 2.63
  Ratio of Medians (Cy5/Cy3) First Spot: 7.46
  Ratio of Medians (Cy5/Cy3) Mean: 5.61 ± 1.85 ^a
  Ratio of Medians (Cy5/Cy3) Second Spot: 3.75
PBX 0143E06 mRNA
  Normalized by Landmarks (0.25): 1.60
  Normalized by all Data Points (0.469): 3.01
  Ratio of Medians (Cy5/Cy3) First Spot: 6.04
  Ratio of Medians (Cy5/Cy3) Mean: 6.41 ± 0.3 ^a
  Ratio of Medians (Cy5/Cy3) Second Spot: 6.78
PBX 0143E11 mRNA
  Normalized by Landmarks (0.25): 1.41
  Normalized by all Data Points (0.469): 2.64
  Ratio of Medians (Cy5/Cy3) First Spot: 4.62
  Ratio of Medians (Cy5/Cy3) Mean: 5.64 ± 1.01 ^a
  Ratio of Medians (Cy5/Cy3) Second Spot: 6.65
PBX0144A09 mRNA
  Cy3/Cy5 by Landmarks (0.25): 4.00
  Cy3/Cy5 by all Data Points (0.469): 2.13
  Normalized by Landmarks (0.25): 0.250
  Normalized by all Data Points (0.469): 0.469
  Ratio of Medians (Cy5/Cy3) First Spot: 0.83
  Ratio of Medians (Cy5/Cy3) Mean: 1.00 ± 0.17 ^a
  Ratio of Medians (Cy5/Cy3) Second Spot: 1.16
PBX0145D04 mRNA
  Cy3/Cy5 by Landmarks (0.25): 4.35
  Cy3/Cy5 by all Data Points (0.469): 2.32
  Normalized by Landmarks (0.25): 0.230
  Normalized by all Data Points (0.469): 0.431
  Ratio of Medians (Cy5/Cy3) First Spot: 0.9
  Ratio of Medians (Cy5/Cy3) Mean: 0.92 ± 0.02 ^a
  Ratio of Medians (Cy5/Cy3) Second Spot: 0.95
PBX0145D06 mRNA
  Cy3/Cy5 by Landmarks (0.25): 4.03
  Cy3/Cy5 by all Data Points (0.469): 2.15
  Normalized by Landmarks (0.25): 0.248
  Normalized by all Data Points (0.469): 0.464
  Ratio of Medians (Cy5/Cy3) First Spot: 0.98
  Ratio of Medians (Cy5/Cy3) Mean: 0.99 ± 0.01 ^a
  Ratio of Medians (Cy5/Cy3) Second Spot: 1.00
Gene PBX0135A08
  % increase of mRNA expression by Microarray analysis (NF by all data point): no change
Gene PBX013409
  % increase of mRNA expression by Microarray analysis (NF by all data point): no change
